Assay results published in PubChem BioAssay AID248 (DTP/NCI, 2004).
Toxic doses and inconclusive results are not listed. No stated cut-off is given here; in the data, active means T/C of 150% or more; inactive means T/C below 125%.

System: L1210 leukemia ip in BDF1 mice, survival T/C
Assay: NCI In Vivo Anticancer Drug Screen. Data for tumor model L1210 Leukemia (intraperitoneal) in B6D2F1 (BDF1) mice
Conditions: endpoint: mean survival time, higher = longer survival
How it was run: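 Survival endpoint. Drug-treated group vs vehicle group, expressed as T divided by C. Tumor passaged by transplantation.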

[1] = dose: 100.0 mg/kg/injection, schedule: Q04DX003 (ip), vehicle: saline
[2] = dose: 200.0 mg/kg/injection, schedule: Q04DX003 (ip), vehicle: saline
[3] = dose: 400.0 mg/kg/injection, schedule: Q04DX003 (ip), vehicle: saline
[4] = dose: 100.0 mg/kg/injection, schedule: Q01DX009 (ip), vehicle: Klucel (hydroxypropylcellulose) (HPC)
[5] = dose: 200.0 mg/kg/injection, schedule: Q01DX009 (ip), vehicle: Klucel (hydroxypropylcellulose) (HPC)
[6] = dose: 400.0 mg/kg/injection, schedule: Q01DX009 (ip), vehicle: Klucel (hydroxypropylcellulose) (HPC)
[7] = dose: 100.0 mg/kg/injection, schedule: Q04DX003 (ip), vehicle: saline with Tween-80
[8] = dose: 200.0 mg/kg/injection, schedule: Q04DX003 (ip), vehicle: saline with Tween-80
[9] = dose: 100.0 mg/kg/injection, schedule: Q01DX001 (ip), vehicle: saline
[10] = dose: 200.0 mg/kg/injection, schedule: Q01DX001 (ip), vehicle: saline

Measured: T/C

O=C1O/C(=C/c2ccccc2)C2CCCCC12 (stereo not given)
inactive: dose: 100.0 mg/kg/injection, schedule: Q01DX009 (ip), vehicle: saline 90 % of control | [1] 105 % of control | dose: 200.0 mg/kg/injection, schedule: Q01DX009 (ip), vehicle: saline 93 % of control | [2] 93 % of control | dose: 400.0 mg/kg/injection, schedule: Q01DX009 (ip), vehicle: saline 95 % of control | [3] 95 % of control

COc1cc(OC)cc(C(=O)N2CC2)c1
inactive: dose: 25.0 mg/kg/injection, schedule: Q01DX009 (ip), vehicle: water 100 % of control | dose: 50.0 mg/kg/injection, schedule: Q01DX009 (ip), vehicle: water 88 % of control

NCCB(O)O
inactive: [1] 95 % of control | [2] 93 % of control | [3] 98 % of control

CCCCN1CCSC1=S
inactive: dose: 100.0 mg/kg/injection, schedule: Q01DX009 (ip), vehicle: alcohol 93 % of control | dose: 100.0 mg/kg/injection, schedule: Q04DX002 (ip), vehicle: alcohol 100 % of control | dose: 200.0 mg/kg/injection, schedule: Q01DX009 (ip), vehicle: alcohol 96 % of control | dose: 200.0 mg/kg/injection, schedule: Q04DX002 (ip), vehicle: alcohol 87 % of control | dose: 400.0 mg/kg/injection, schedule: Q01DX009 (ip), vehicle: alcohol 86 % of control | dose: 400.0 mg/kg/injection, schedule: Q04DX002 (ip), vehicle: alcohol 103 % of control

COc1ccc(/C=N\NC(=O)CNC(=O)Nc2cccc(Cl)c2)cc1OC
inactive: dose: 50.0 mg/kg/injection, schedule: Q01DX009 (ip), vehicle: saline with Tween-80 88 % of control | dose: 100.0 mg/kg/injection, schedule: Q01DX009 (ip), vehicle: saline with Tween-80 92 % of control | dose: 200.0 mg/kg/injection, schedule: Q01DX009 (ip), vehicle: saline with Tween-80 88 % of control

Clc1ccc(C2CC3(CC(c4ccc(Cl)cc4)N2)SSC2(CC(c4ccc(Cl)cc4)NC(c4ccc(Cl)cc4)C2)S3)cc1 (stereo not given)
inactive: [4] 98 % of control | [5] 108 % of control | [6] 98 % of control

S=C1SCN(c2ccccc2)CN1c1ccccc1
inactive: [7] 88 % of control | [8] 88 % of control

O=C(c1ccccc1)c1ccc(O)cc1
inactive: [4] 93 % of control | dose: 100.0 mg/kg/injection, schedule: Q04DX003 (ip), vehicle: Klucel (hydroxypropylcellulose) (HPC) 103 % of control | [5] 93 % of control | dose: 200.0 mg/kg/injection, schedule: Q04DX003 (ip), vehicle: Klucel (hydroxypropylcellulose) (HPC) 100 % of control | [6] 100 % of control | dose: 400.0 mg/kg/injection, schedule: Q04DX003 (ip), vehicle: Klucel (hydroxypropylcellulose) (HPC) 103 % of control

COCC1OC1(C(=O)c1ccccc1Cl)c1ccccc1Cl (stereo not given)
inactive: [9] 107 % of control | [10] 100 % of control | dose: 400.0 mg/kg/injection, schedule: Q01DX001 (ip), vehicle: saline 96 % of control

COC(=O)CNCc1ccccc1
inactive: dose: 100.0 mg/kg/injection, schedule: Q01DX009 (ip), vehicle: water 98 % of control | dose: 200.0 mg/kg/injection, schedule: Q01DX009 (ip), vehicle: water 115 % of control | dose: 400.0 mg/kg/injection, schedule: Q01DX009 (ip), vehicle: water 100 % of control

OC(CN1CC1)c1ccccc1 (stereo not given)
inactive: dose: 20.0 mg/kg/injection, schedule: Q01DX009 (ip), vehicle: Klucel (hydroxypropylcellulose) (HPC) 95 % of control | dose: 20.0 mg/kg/injection, schedule: Q04DX003 (ip), vehicle: Klucel (hydroxypropylcellulose) (HPC) 97 % of control | dose: 40.0 mg/kg/injection, schedule: Q01DX009 (ip), vehicle: Klucel (hydroxypropylcellulose) (HPC) 95 % of control | dose: 40.0 mg/kg/injection, schedule: Q04DX003 (ip), vehicle: Klucel (hydroxypropylcellulose) (HPC) 102 % of control | dose: 80.0 mg/kg/injection, schedule: Q04DX003 (ip), vehicle: Klucel (hydroxypropylcellulose) (HPC) 97 % of control

COc1ccc(C(=O)N/N=C/c2ccc(Cl)cc2Cl)cc1
inactive: [4] 102 % of control | [5] 94 % of control | [6] 91 % of control

O=C(O)c1cc(N2CCCC2)ccn1
inactive: [9] 96 % of control | [10] 101 % of control

Cc1cc(C)c(S(=O)(=O)NN)c(C)c1
inactive: [7] 94 % of control | [8] 90 % of control

CC(C)CCC[C@@H](C)[C@H]1CC[C@H]2[C@@H]3CC=C4C[C@@H](OC(=O)Cc5ccc(N(CCCl)CCCl)cc5)CC[C@]4(C)[C@H]3CC[C@]12C
inactive: dose: 50.0 mg/kg/injection, schedule: Q01DX001 (sc), vehicle: steriod suspending solution 110 % of control | dose: 50.0 mg/kg/injection, schedule: Q01DX009 (oral), vehicle: saline 98 % of control | dose: 100.0 mg/kg/injection, schedule: Q01DX001 (sc), vehicle: steriod suspending solution 96 % of control | dose: 100.0 mg/kg/injection, schedule: Q01DX009 (oral), vehicle: other 121 % of control | dose: 100.0 mg/kg/injection, schedule: Q01DX009 (oral), vehicle: saline 98 % of control | dose: 100.0 mg/kg/injection, schedule: Q01DX009 (sc), vehicle: other 109 % of control | dose: 200.0 mg/kg/injection, schedule: Q01DX001 (sc), vehicle: steriod suspending solution 100 % of control | dose: 200.0 mg/kg/injection, schedule: Q01DX009 (oral), vehicle: saline 102 % of control | dose: 200.0 mg/kg/injection, schedule: Q01DX009 (sc), vehicle: other 111 % of control | dose: 250.0 mg/kg/injection, schedule: Q01DX015 (ip), vehicle: steriod suspending solution 95 % of control | dose: 400.0 mg/kg/injection, schedule: Q01DX001 (sc), vehicle: steriod suspending solution 115 % of control | dose: 400.0 mg/kg/injection, schedule: Q01DX009 (oral), vehicle: other 116 % of control | dose: 400.0 mg/kg/injection, schedule: Q01DX009 (oral), vehicle: saline 91 % of control | dose: 400.0 mg/kg/injection, schedule: Q01DX009 (sc), vehicle: other 106 % of control | dose: 400.0 mg/kg/injection, schedule: Q01DX015 (ip), vehicle: steriod suspending solution 111 % of control | dose: 800.0 mg/kg/injection, schedule: Q01DX009 (oral), vehicle: other 98 % of control | dose: 800.0 mg/kg/injection, schedule: Q01DX009 (oral), vehicle: saline 96 % of control

CN=C(N)c1ccc(N=C(N)c2ccc(Cl)c(C(N)=Nc3ccc(C(N)=NC)cc3)c2)cc1
inactive: dose: 10.0 mg/kg/injection, schedule: Q01DX Z (ip), vehicle: water 96 % of control | dose: 20.0 mg/kg/injection, schedule: Q01DX Z (ip), vehicle: water 113 % of control

CC(C)(C)c1ccc2oc(-c3ccc(-c4nc5cc(C(C)(C)C)ccc5o4)s3)nc2c1
inactive: dose: 100.0 mg/kg/injection, schedule: Q04DX003 (ip), vehicle: gum acacia 92 % of control | dose: 200.0 mg/kg/injection, schedule: Q04DX003 (ip), vehicle: gum acacia 99 % of control
